Non-standard residues stand in square brackets, D forms with d. pGlu = O=C1CC[C@@H](C(=O)O)N1
Assays:
Assay type in all cases: in vivo, human
[1] = tested on: chronic right shoulder pain; experiment: Example 7: analgesic effect on shoulder pain, topical
From the text: A subject had chronic right shoulder pain. The subject was unable to lift their arm above chest level. The subject topically applied an anhydrous solution composition containing 0.5% (w/v) N-Ac-Tyr-Pro-Phe-Phe-NH2(SEQ ID NO: 23) in EP73, formulated as described in the Example 2, on their right shoulder at night. The next morning, 70% relief of pain was observed. The subject re-applied the composition at bedtime. The following morning, 85-90% relief was observed and they were able to lift their arm above their head with only minor discomfort.

severe migraine = experiment: Example 12: analgesic effect on severe migraine headache, topical; settings: 1% (w/v) in WEP442, topical
Protocol: One day, at approximately 8 AM, visual aura and pain in the frontal scalp, forehead and frontal sinuses began and became very severe within 5-10 minutes. Thereafter, the subject topically applied a composition containing 1% (w/v) N-Ac-Tyr-Pro-Phe-Phe-NH2(SEQ ID NO: 23) in WEP442 to the involved area. […] Three (3) days later they remained free of any migraine headache and symptoms.

[2] = tested on: disabling pain in hands and fingers after exertion; experiment: Example 25: analgesic effect on severe muscle soreness, topical; settings: 1% (w/v) in WEP442, topical
From the text: A subject had disabling pain in their hands and fingers the next morning after a day of intense exertion of the hands and fingers from using hand screw drivers over a 12-hour period during a building construction job. The intensity of pain was so great that they were unable to lace up their work boots.

[3] = tested on: finger pain following trauma; experiment: Example 31: analgesic effect on painful inflammation following trauma, topical; settings: 1% (w/v) in WEP442, topical
Protocol: A subject, experienced sharp pain in their right index finger while trying to loosen a screw-on lid of a fruit jar with their right hand. After about 10 minutes, the pain became throbbing in nature and very intense. The proximal interphalangeal became swollen and discolored (black and blue) from subcutaneous hemorrhage. […] Discoloration of the joint faded over the next several days.

[4] = tested on: traumatized right big toe; experiment: Example 34: analgesic effect on pain in big toe following trauma, topical; settings: 1% (w/v) in WEP442, topical
Protocol: A subject, traumatized their right big toe while repositioning heavy furniture, and experienced disabling persistent pain of that toe. About 10 minutes after the trauma occurred, they topically applied a composition containing 1% (w/v) of N-Ac-Tyr-Pro-Phe-Phe-NH2 (SEQ ID NO: 23) in WEP442 to the toe.

bruised finger = experiment: Example 37: analgesic effect on bruised finger, topical; settings: 1% (w/v) in WEP442, topical
From the text: A subject, severely bruised their left 5th finger while trying to close a basement window in their house. The pain was intense, and associated with subcutaneous hemorrhage.

pain at injection sites = experiment: Example 39: analgesic effect on pain at site of subcutaneous injection of hyaluronic acid, topical; settings: 1% (w/v) in WEP442, topical
From the text: A subject, experienced substantial pain in the zygomatic-facial areas, sites injected subcutaneously with a hyaluronic acid product (Restylane) six hours earlier for the cosmetic purpose of plumping up the skin.

[5] = tested on: severe migraine headaches; experiment: Example 41: analgesic effect on migraine headaches, topical
From the text: A subject with severe migraine headaches associated with nausea and vomiting that had been occurring 3-4 times per month over the past 9-10 years, topically applied a composition containing 1% (w/v) of N-Ac-Tyr-Pro-Phe-Phe-NH2 (SEQ ID NO: 23) in WEP442 to the forehead, brow, eyelids and temporal areas at the onset of headaches. […] The frequency of episodes diminished over the next two months, and the subject reported that they experienced no headaches for at least a 5 week period.

[6] = tested on: severe nauseating headache; experiment: Example 60: analgesic effect on headache due to inhalation of exhaust fumes, topical; settings: 0.5% (w/v) in WEP442, topical
From the text: A construction worker, suffered a severe nauseating headache on a day when, for about an hour, they were exposed to exhaust fumes from a gasoline motor driven dust blower early in the day. The headache persisted all day and into the evening.

psoriatic knee pain = experiment: Example 66: analgesic effect on psoriatic knee pain, topical; settings: 0.5% (w/v) in WEP442, topical
From the text: A person with plaque psoriasis of the scalp, elbows and knees for about 10 years had pain in their knees for the past 4-5 years. The knee pain had gradually worsened. […] After hiking for several hours, the knee pain sometimes re-occurred, but it was immediately relieved by topical application of the above solution composition.

painful tendonitis = experiment: Example 50: topical treatment of painful tendonitis of right wrist and right thumb; settings: 1% (w/v) in WEP442, topical
From the text: A subject with painful tendonitis after playing tennis topically applied a composition containing 1% (w/v) of N-Pg-Tyr-Pro-Phe-Phe-NH2 (SEQ ID NO: 44) in WEP442 to the right thumb and to the entire wrist.

restless leg syndrome = experiment: Example 75: treatment of restless leg syndrome, topical; settings: 1% (w/v) in WEP442, topical to legs after an episode
From the text: Restless leg syndrome (RLS) is a disorder in which involuntary movements of the legs occur during the sleeping hours. A subject, presented with RLS for a duration of about 4 years. The disorder in the subject had not responded to therapy with opiates, nor to a benzodiazepine medication.

[7] = tested on: painful arthritis of hands; experiment: Example 76: analgesic effect on arthritis pain of the hands, topical; settings: 0.5% (w/v) in WEP442, topical; before about 20 minutes
Protocol: A subject, and a veteran guitar player, was able to play their instrument in previous years for about an hour in group session performances. […] The subject reported that topical application to their hands of a composition containing 0.5% (w/v) of N-Pg-Tyr-Pro-Phe-Phe-NH2 (SEQ ID NO: 44) in WEP442 enabled them to play their guitar for 1 hour pain free. They also noted that the quality of their performance had improved.

Q: `CC(=O)N[C@@H](Cc1ccc(O)cc1)C(=O)N1CCC[C@H]1C(=O)N[C@@H](Cc1ccccc1)C(=O)N[C@@H](Cc1ccccc1)C(N)=O` [N-Ac-Tyr-Pro-Phe-Phe-NH2] was tested. Which relief of pain ([1]; 0.5% (w/v) in EP73, re-applied at bedtime, following morning) did it give?
A: 85-90%

Q: What about the relief of pain ([1]; 0.5% (w/v) in EP73, topical at night, next morning) of the same compound?
A: 70%

Q: And the “relief of migraine pain and all other symptoms” value (severe migraine)?
A: suddenly disappeared completely

Q: What about the “time free of migraine headache and symptoms” value (severe migraine) of the same compound?
A: ≥ 3 days

Q: And the “time to pain relief” value (severe migraine)?
A: 6 to 7 min

Q: And the recurrence [2]?
A: did not recur at all

Q: What about the pain relief ([2]; hand-wash manner) of the same compound?
A: instantaneous, complete relief of pain

Q: And the pain relief [3]?
A: instantaneous total relief of pain

Q: And the recurrence [3]?
A: No pain returned

Q: What about the pain relief [4] of the same compound?
A: Complete relief of pain

Q: What about the recurrence [4] of the same compound?
A: did not return

Q: And the “time to pain relief” value [4]?
A: 15 to 30 s

Q: What about the pain relief (bruised finger) of the same compound?
A: complete relief of pain

Q: And the “time to pain relief” value (bruised finger)?
A: ≤ 15 s

Q: What about the pain relief (pain at injection sites) of the same compound?
A: completely relieved the pain

Q: What about the recurrence (pain at injection sites) of the same compound?
A: did not return

Q: What about the “time to pain relief” value (pain at injection sites) of the same compound?
A: ≤ 1 min

Q: What about the “time to pain relief” value ([5]; 1% (w/v) in WEP442, topical) of the same compound?
A: 2 to 3 min

Q: What about the pain relief ([5]; 1% (w/v) in WEP442, topical at onset of headaches) of the same compound?
A: Complete relief of pain and other symptoms

Q: And the period without headaches ([5]; 1% (w/v) in WEP442, topical, over the next two months)?
A: ≥ 5 week

Q: And the pain relief [6]?
A: completely relieved the headache

Q: What about the “time to pain relief” value [6] of the same compound?
A: ≤ 2 min

Q: What about the “duration of pain relief” value (psoriatic knee pain) of the same compound?
A: about 6 hours

Q: And the pain relief (psoriatic knee pain)?
A: relieved their knee pain

Q: With “N-Pg-Tyr-Pro-Phe-Phe-NH2 ([pGlu]YPFF-NH2; SMILES NC(=O)[C@H](Cc1ccccc1)NC(=O)[C@H](Cc1ccccc1)NC(=O)[C@@H]1CCCN1C(=O)[C@H](Cc1ccc(O)cc1)NC(=O)[C@@H]1CCC(=O)N1)” as the compound, how does the pain relief (painful tendonitis) read?
A: all pain and discomfort from any hand movements were gone

Q: What about the “time to pain relief” value (painful tendonitis) of the same compound?
A: 5 to 10 min

Q: What about the “time without return of pain (follow up period)” value (painful tendonitis) of the same compound?
A: ≥ 24 h

Q: What about the involuntary leg movement (restless leg syndrome) of the same compound?
A: completely prevented further involuntary leg movement

Q: And the “pain free guitar playing time” value [7]?
A: 1 h
